From patent US10561708B2, “Anti-tumor therapy” (The University of Chicago, priority 2013, dated 2020)

Assays:
[1] = tested on: CWR-R1 xenografts; test: Xenograft tumor growth in nude mice; type: in vivo; settings: CWRR1
Procedure: (§1) To determine the potential therapeutic value of targeting the JAK/STAT pathway in prostate cancer, the cells were exposed to the specific JAK2 inhibitor SAR302503. Since it is expected that the greatest value of inhibiting the JAK/STAT pathway is in combination with other toxic insults we evaluated the effect of ionizing radiation used in the treatment of CRPC, and SAR302503 in the genetically related CWR lines (FIG. 2). Cells were plated in p60 dishes with or w/o 0.5 μM of SAR302503 and irradiated with 2 or 5 Gy (or left un-irradiated). Colonies counting and estimation of survival fractions were performed as described elsewhere (Khodarev et. al., 2007, Cancer Research). […] To extend these observations in preclinical animal models we established xenografts of CWR-R1 and CWR-22RV1. For this purpose 10^7 cells were injected in the right flank of each nude mice (5 animals per group) and when tumors reached 200 mm^3 in volume mice were either left un-treated, or treated with SAR302503 (120 mg/kg, once a day, 4 days) or irradiated locally (2×10 Gy) or subjected to combined treatments with SAR302503 and IR. […] At the same tumors treatment by SAR302503 alone led to the 4-days growth delay compared with control tumors. These effects were not observed in CWRR1. Molecular differences between two tumors are currently under investigation. The difference between CWR-R1 and CWR-22RV1 is especially noteworthy since they are isogenic, castrate resistant, and carry both native and splice variant androgen receptor, which is reminiscent of the findings in human prostate cancer specimens.

[2] = tested on: CWR-22RV1 xenografts; test: Xenograft tumor growth in nude mice; type: in vivo
Procedure: as §1

[3] = tested on: CWR-R1 cells; test: Clonogenic survival with ionizing radiation with or w/o SAR302503; type: cell-based; settings: 0.5 μM SAR302503, 2 or 5 Gy
Procedure: (§2) These cell lines were characterized for relative radioresistance using a clonogenic assay. Briefly, the cells were cultured in their appropriate media at 5% CO2 at 37° C. Optimal cell plating concentrations for a p60 dish were determined for each cell line. The majority of cell lines were plated in triplicate at concentrations of 100 cells/plate for control, 1000 cells/plate for 2 Gy, 2000 cells/plate for 5 Gy, and 3000 cells/plate for 8 Gy. Plates were irradiated 24 hours after plating with either 2, 5, or 8 Gy using a irradiated using a Nordion Gammacell ^60Co irradiator operating at a dose rate of ˜18 Gy/minute. Cells were allowed to grow for 10-21 days (depending on the cell line) until colonies were >50 cells. Plates were then fixed with formalin and stained with crystal violet. Colonies with more than 50 cells were counted. Clonogenic survival for Clonogenic data was obtained for all cell lines tested in screen.
(§3) To determine the potential therapeutic value of targeting the JAK/STAT pathway in prostate cancer, the cells were exposed to the specific JAK2 inhibitor SAR302503. Since it is expected that the greatest value of inhibiting the JAK/STAT pathway is in combination with other toxic insults we evaluated the effect of ionizing radiation used in the treatment of CRPC, and SAR302503 in the genetically related CWR lines (FIG. 2). […]

[4] = tested on: CWR-22RV1 cells; test: as above; type: cell-based; settings: 0.5 μM SAR302503, 2 or 5 Gy
Procedure: as §2, §3

Cc1cnc(Nc2ccc(OCCN3CCCC3)cc2)nc1Nc1cccc(S(=O)(=O)NC(C)(C)C)c1 [SAR302503]
tumor growth, combined treatment with IR ([1]; 120 mg/kg once a day 4 days + IR 2×10 Gy): not observed
growth delay compared with control tumors, inhibitor alone ([1]; 120 mg/kg, once a day, 4 days): not observed
tumor growth, combined treatment with IR ([2]; 120 mg/kg once a day 4 days + IR 2×10 Gy, by day 9 after beginning of treatment): significant suppression of tumor growth
growth delay compared with control tumors, inhibitor alone ([2]; 120 mg/kg, once a day, 4 days): 4 days
enhancement of cytotoxic activity of IR (survival fraction, colonies) [3]: not enhanced
enhancement of effects of IR (survival fraction, colonies) [4]: significantly enhanced
